Data published in patent publication US4734492A, “Macrolide antibiotic M 119” (Kirin Beer Kabushiki Kaisha, priority 1985, dated 1988).
Converted amounts (≈) assume the structure as drawn. Where two headings read alike, the source gives them in different places.

Columns and labels:
[1] = test system: Micrococcus luteus ATCC 9341 (MS-1); test: MIC by agar dilution method; assay type: cell-based; settings: ATCC9341
Description: (§1) Also shown in the same table are the MIC's obtained for josamycin (JM) and erythromycin (EM) as controls.

[2] = test system: Staphylococcus aureus MS 353 (MS-1); test: MIC by agar dilution method; assay type: cell-based
Description: as §1

[3] = test system: Klebsiella pneumoniae PCI-602 (MS-1); test: MIC by agar dilution method; assay type: cell-based
Description: as §1

[4] = test system: Serratia marcescens IAM 1184 (MS-1); test: MIC by agar dilution method; assay type: cell-based; settings: IAM1184
Description: as §1

[5] = test system: Salmonella schottmuelleri 8006 (MS-1); test: MIC by agar dilution method; assay type: cell-based
Description: as §1

[6] = test system: Bacillus cereus IAM 1729; test: MIC by agar dilution method; assay type: cell-based; settings: IAM1729
Description: as §1

[7] = test system: Staphylococcus aureus FDA 209PJC-1 (MS-1); test: MIC by agar dilution method; assay type: cell-based
Description: as §1

[8] = test system: Pseudomonas aeruginosa NCTC 10490 (MS-1); test: MIC by agar dilution method; assay type: cell-based; settings: NCTC10490
Description: as §1

[9] = test system: Salmonella typhi 901 (MS-1); test: MIC by agar dilution method; assay type: cell-based; settings: Salmonella enterica
Description: as §1

[10] = test system: Pseudomonas aeruginosa IFO 3445 (MS-1); test: MIC by agar dilution method; assay type: cell-based; settings: IFO3445
Description: as §1

[11] = test system: Enterobacter cloacae 963 (MS-1); test: MIC by agar dilution method; assay type: cell-based
Description: as §1

[12] = test system: Staphylococcus aureus Terajima (MS-1); test: MIC by agar dilution method; assay type: cell-based
Description: as §1

[13] = test system: Salmonella enteritidis G 14 (MS-1); test: MIC by agar dilution method; assay type: cell-based; settings: Salmonella enterica
Description: as §1

[14] = test system: Escherichia coli NIHJ-JC-2 (MS-1); test: MIC by agar dilution method; assay type: cell-based; settings: NIHJJC2, E. coli NIHJ-JC-2 (MS-1)
Description: as §1

[15] = test system: Streptococcus pyogenes Cook (MS-1); test: MIC by agar dilution method; assay type: cell-based
Description: as §1

[16] = test system: Salmonella paratyphi 1015 (MS-1); test: MIC by agar dilution method; assay type: cell-based; settings: Salmonella enterica
Description: as §1

[17] = test system: Pseudomonas aeruginosa PAO 1 (MS-1); test: MIC by agar dilution method; assay type: cell-based
Description: as §1

[18] = test system: Proteus rettgeri IFO 3850 (MS-1); test: MIC by agar dilution method; assay type: cell-based; settings: Providencia rettgeri, IFO3850
Description: as §1

[19] = test system: Proteus vulgaris OX-19 (MS-1); test: MIC by agar dilution method; assay type: cell-based
Description: as §1

[20] = test system: Salmonella typhimurium IID971 (MS-1); test: MIC by agar dilution method; assay type: cell-based; settings: Salmonella enterica
Description: as §1

[21] = test system: Bacillus subtilis ATCC 6633 (MS-1); test: MIC by agar dilution method; assay type: cell-based; settings: ATCC6633
Description: as §1

[22] = test system: Mycoplasma pneumoniae; test: MIC by agar dilution method; assay type: cell-based
Description: as §1

[23] = test system: Proteus morganii IFO 3848 (MS-1); test: MIC by agar dilution method; assay type: cell-based; settings: Morganella morganii, IFO3848
Description: as §1

[24] = test system: Enterobacter aerogenes ATCC 13048 (MS-1); test: MIC by agar dilution method; assay type: cell-based; settings: Klebsiella aerogenes, ATCC13048
Description: as §1

[25] = test system: Escherichia coli K12 C600 (MS-1); test: MIC by agar dilution method; assay type: cell-based; settings: E. coli K12 C600 (MS-1)
Description: as §1

[26] = test system: Staphylococcus aureus MS 15009 (pI258) Mac^r; test: MIC by agar dilution method; assay type: cell-based
Description: as §1
(§2) Note: "Mac^r " stands for a constitutive macrolide resistant

[27] = test system: Staphylococcus aureus MS 12917 Mac^r; test: MIC by agar dilution method; assay type: cell-based
Description: as §1, §2

[28] = Solubility; assay type: physicochemical
[29] = agar dilution, Micrococcus luteus ATCC 9341 (MS-1), read-out: MIC
[30] = agar dilution, S. aureus MS 353 (MS-1), read-out: MIC
[31] = agar dilution, Klebsiella pneumoniae PCI-602 (MS-1), read-out: MIC
[32] = agar dilution, Serratia marcescens IAM 1184 (MS-1), read-out: MIC
[33] = agar dilution, Bacillus cereus IAM 1729, read-out: MIC
[34] = agar dilution, S. aureus FDA 209PJC-1 (MS-1), read-out: MIC
[35] = agar dilution, Pseudomonas aeruginosa NCTC 10490 (MS-1), read-out: MIC
[36] = agar dilution, Pseudomonas aeruginosa IFO 3445 (MS-1), read-out: MIC
[37] = agar dilution, Enterobacter cloacae 963 (MS-1), read-out: MIC
[38] = agar dilution, S. aureus Terajima (MS-1), read-out: MIC
[39] = agar dilution, Salmonella enteritidis G 14 (MS-1), read-out: MIC
[40] = agar dilution, Streptococcus pyogenes Cook (MS-1), read-out: MIC
[41] = agar dilution, Pseudomonas aeruginosa PAO 1 (MS-1), read-out: MIC
[42] = agar dilution, Proteus rettgeri IFO 3850 (MS-1), read-out: MIC
[43] = agar dilution, Proteus vulgaris OX-19 (MS-1), read-out: MIC
[44] = agar dilution, Salmonella typhimurium IID971 (MS-1), read-out: MIC
[45] = agar dilution, Bacillus subtilis ATCC 6633 (MS-1), read-out: MIC
[46] = agar dilution, Mycoplasma pneumoniae, read-out: MIC
[47] = agar dilution, Proteus morganii IFO 3848 (MS-1), read-out: MIC
[48] = agar dilution, Enterobacter aerogenes ATCC 13048 (MS-1), read-out: MIC

Row | SMILES | MIC [1, 29] [µg/mL] | MIC [2, 30] [µg/mL] | MIC [3, 31] [µg/mL] | MIC [4, 32] [µg/mL] | MIC [5] [µg/mL] | MIC [6, 33] [µg/mL] | MIC [7, 34] [µg/mL] | MIC [8, 35] [µg/mL] | MIC [9] [µg/mL] | MIC [10, 36] [µg/mL] | MIC [11, 37] [µg/mL] | MIC [12, 38] [µg/mL] | MIC [13, 39] [µg/mL] | MIC [14] [µg/mL] | MIC [15, 40] [µg/mL] | MIC [16] [µg/mL] | MIC [17, 41] [µg/mL] | MIC [25] [µg/mL] | MIC [26] [µg/mL] | MIC [27] [µg/mL] | further results
1 | CCC1OC(=O)CC(O)C(C)C(OC2OC(C)C(OC3CC(C)(O)C(O)C(C)O3)C(N(C)C)C2O)C(CC=O)CC(C)C(=O)C=CC2(C)OC2C1C (stereo not drawn) [M 119-a] | < 0.1 | 0.78 (≈ 1.05 µM) | 12.5 (≈ 16.8 µM) | > 100 | 100 (≈ 135 µM) | 0.39 (≈ 0.526 µM) | 0.2 (≈ 0.27 µM) | > 100 | 100 (≈ 135 µM) | > 100 | > 100 | 0.78 (≈ 1.05 µM) | > 100 | > 100 | 0.2 (≈ 0.27 µM) | 50 (≈ 67.4 µM) | > 100 | 100 (≈ 135 µM) | > 100 | > 100 | MIC [18, 42]: > 100 µg/mL; MIC [19, 43]: > 100 µg/mL; MIC [20, 44]: > 100 µg/mL; MIC [21, 45]: 0.2 µg/mL (≈ 0.27 µM); MIC [22, 46]: 0.1 µg/mL (≈ 0.135 µM); MIC [23, 47]: 50 µg/mL (≈ 67.4 µM); MIC [24, 48]: > 100 µg/mL; Solubility ([28]; in hexane, ether and water): insoluble; Solubility ([28]; in methanol and chloroform): Soluble
2 | CC[C@H]1OC(=O)[C@H](C)[C@@H](O[C@H]2C[C@@](C)(OC)[C@@H](O)[C@H](C)O2)[C@H](C)[C@@H](O[C@@H]2O[C@H](C)C[C@H](N(C)C)[C@H]2O)[C@](C)(O)C[C@@H](C)C(=O)[C@H](C)[C@@H](O)[C@]1(C)O [EM, erythromycin, reference compound] |  |  |  |  | 50 (≈ 68.1 µM) |  |  |  | 50 (≈ 68.1 µM) |  |  |  |  | 100 (≈ 136 µM) |  | 25 (≈ 34.1 µM) |  | 50 (≈ 68.1 µM) | > 100 | > 100 | MIC ([1]; Micrococcus luteus): < 0.1 µg/mL; MIC [2]: 0.2 µg/mL (≈ 0.273 µM); MIC ([3]; Klebsiella pneumoniae): 6.25 µg/mL (≈ 8.52 µM); MIC ([4]; Serratia marcescens): 100 µg/mL (≈ 136 µM); MIC ([6]; Bacillus cereus): 0.2 µg/mL (≈ 0.273 µM); MIC [7]: 0.2 µg/mL (≈ 0.273 µM); MIC ([8]; Pseudomonas aeruginosa): > 100 µg/mL; MIC ([10]; Pseudomonas aeruginosa): > 100 µg/mL; MIC ([11]; Enterobacter cloacae): > 100 µg/mL; MIC [12]: 0.2 µg/mL (≈ 0.273 µM); MIC ([13]; ENTERITIDIS): 100 µg/mL (≈ 136 µM); MIC ([15]; Streptococcus pyogenes): 0.2 µg/mL (≈ 0.273 µM); MIC ([17]; Pseudomonas aeruginosa): > 100 µg/mL; MIC [18]: > 100 µg/mL; MIC ([19]; Proteus vulgaris): > 100 µg/mL; MIC [20]: 100 µg/mL (≈ 136 µM); MIC ([21]; Bacillus subtilis): < 0.1 µg/mL; MIC ([22]; Mycoplasma): 0.1 µg/mL (≈ 0.136 µM); MIC [23]: 25 µg/mL (≈ 34.1 µM); MIC [24]: 100 µg/mL (≈ 136 µM)
3 | CCC1OC(=O)CC(O)C(C)C(OC2OC(C)C(OC3CC(C)(O)C(O)C(C)O3)C(N(C)C)C2O)C(CC=O)CC(C)C(=O)C=CC2(C)OC2C1(C)O (stereo not drawn) [M 119-d] | 0.2 (≈ 0.264 µM) | 3.13 (≈ 4.13 µM) | 12.5 (≈ 16.5 µM) | > 100 | 25 (≈ 33 µM) | 1.56 (≈ 2.06 µM) | 0.78 (≈ 1.03 µM) | > 100 | 100 (≈ 132 µM) | > 100 | > 100 | 3.13 (≈ 4.13 µM) | > 100 | > 100 | 0.78 (≈ 1.03 µM) | 25 (≈ 33 µM) | > 100 | 100 (≈ 132 µM) | > 100 | > 100 | MIC [18, 42]: > 100 µg/mL; MIC [19, 43]: > 100 µg/mL; MIC [20, 44]: > 100 µg/mL; MIC [21, 45]: 0.78 µg/mL (≈ 1.03 µM); MIC [23, 47]: 50 µg/mL (≈ 66 µM); MIC [24, 48]: 100 µg/mL (≈ 132 µM); Solubility ([28]; in hexane, ether and water): insoluble; Solubility ([28]; in methanol and chloroform): Soluble
4 | CO[C@@H]1[C@@H](O[C@@H]2O[C@H](C)[C@@H](O[C@H]3C[C@@](C)(O)[C@@H](OC(=O)CC(C)C)[C@H](C)O3)[C@H](N(C)C)[C@H]2O)[C@@H](CC=O)C[C@@H](C)[C@@H](O)/C=C/C=C/C[C@@H](C)OC(=O)C[C@H]1OC(C)=O [JM, josamycin, reference compound] | < 0.1 | 0.78 (≈ 0.942 µM) | 12.5 (≈ 15.1 µM) | > 100 | > 100 | 0.39 (≈ 0.471 µM) | 0.2 (≈ 0.242 µM) | > 100 | > 100 | > 100 | > 100 | 0.78 (≈ 0.942 µM) | > 100 | > 100 | 0.2 (≈ 0.242 µM) | 100 (≈ 121 µM) | > 100 | > 100 | > 100 | > 100 | MIC [18, 42]: > 100 µg/mL; MIC [19, 43]: > 100 µg/mL; MIC [20, 44]: > 100 µg/mL; MIC [21, 45]: 0.39 µg/mL (≈ 0.471 µM); MIC [22, 46]: 0.2 µg/mL (≈ 0.242 µM); MIC [23, 47]: > 100 µg/mL; MIC [24, 48]: > 100 µg/mL
